Results from PubChem BioAssay AID248 (DTP/NCI, 2004).
Values joined by “and” are separate entries in the source; they are usually repeats but may differ in a detail not shown here. Equal entries are not always repeated. Toxic doses and inconclusive results are not listed. Rule as the data show it: active = T/C of 150% or more; inactive = T/C below 125%.

Tested on: L1210 leukemia ip in BDF1 mice, survival T/C
Assay: NCI In Vivo Anticancer Drug Screen. Data for tumor model L1210 Leukemia (intraperitoneal) in B6D2F1 (BDF1) mice
Conditions: endpoint: mean survival time, higher = longer survival
In short: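 Transplanted-tumor mice were given test agent; controls received vehicle only. Survival readings from the two groups were divided (treated over control).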

[1] = dose: 100.0 mg/kg/injection, schedule: Q01DX001 (ip), vehicle: saline
[2] = dose: 200.0 mg/kg/injection, schedule: Q01DX001 (ip), vehicle: saline
[3] = dose: 400.0 mg/kg/injection, schedule: Q01DX001 (ip), vehicle: saline
[4] = dose: 25.0 mg/kg/injection, schedule: Q01DX009 (ip), vehicle: saline
[5] = dose: 50.0 mg/kg/injection, schedule: Q01DX009 (ip), vehicle: saline
[6] = dose: 100.0 mg/kg/injection, schedule: Q01DX009 (ip), vehicle: saline
[7] = dose: 50.0 mg/kg/injection, schedule: Q01DX009 (ip), vehicle: saline with Tween-80
[8] = dose: 100.0 mg/kg/injection, schedule: Q01DX001 (ip), vehicle: Klucel (hydroxypropylcellulose) (HPC)
[9] = dose: 100.0 mg/kg/injection, schedule: Q04DX003 (ip), vehicle: Klucel (hydroxypropylcellulose) (HPC)
[10] = dose: 100.0 mg/kg/injection, schedule: Q04DX003 (ip), vehicle: saline with Tween-80
[11] = dose: 200.0 mg/kg/injection, schedule: Q01DX001 (ip), vehicle: Klucel (hydroxypropylcellulose) (HPC)
[12] = dose: 100.0 mg/kg/injection, schedule: Q01DX009 (ip), vehicle: Klucel (hydroxypropylcellulose) (HPC)
[13] = dose: 200.0 mg/kg/injection, schedule: Q01DX009 (ip), vehicle: Klucel (hydroxypropylcellulose) (HPC)
[14] = dose: 200.0 mg/kg/injection, schedule: Q04DX003 (ip), vehicle: saline with Tween-80
[15] = dose: 400.0 mg/kg/injection, schedule: Q04DX003 (ip), vehicle: saline with Tween-80
[16] = dose: 200.0 mg/kg/injection, schedule: Q01DX009 (ip), vehicle: saline
[17] = dose: 400.0 mg/kg/injection, schedule: Q01DX009 (ip), vehicle: saline

Measured: T/C

CC(C)CCOC(=O)Nc1cccc(Cl)c1
inactive: dose: 75.0 mg/kg/injection, schedule: Q01DX009 (ip), vehicle: saline with Tween-80 113 % of control | dose: 100.0 mg/kg/injection, schedule: Q04DX002 (ip), vehicle: saline with Tween-80 93 % of control | dose: 150.0 mg/kg/injection, schedule: Q01DX009 (ip), vehicle: saline with Tween-80 103 % of control | dose: 200.0 mg/kg/injection, schedule: Q04DX002 (ip), vehicle: saline with Tween-80 86 % of control | dose: 300.0 mg/kg/injection, schedule: Q01DX009 (ip), vehicle: saline with Tween-80 98 % of control | dose: 400.0 mg/kg/injection, schedule: Q04DX002 (ip), vehicle: saline with Tween-80 89 % of control

CCOC(=O)C/C(C)=N\N=C(\C)C(=O)OCC
inactive: [1] 98 % of control | [2] 98 % of control | [3] 92 % of control

CCOC(=O)/C(=C/c1cccc2ccccc12)P(=O)(OCC)OCC
inactive: dose: 50.0 mg/kg/injection, schedule: Q01DX001 (ip), vehicle: saline 97 % of control | [1] 97 % of control | [2] 103 % of control | [3] 101 % of control

O=C1Cc2ccccc2C(=O)N1
inactive: dose: 25.0 mg/kg/injection, schedule: Q01DX Z (ip), vehicle: carboxymethylcellulose (CMC) 91 % of control | dose: 40.0 mg/kg/injection, schedule: Q01DX Z (ip), vehicle: carboxymethylcellulose (CMC) 104 % of control | dose: 60.0 mg/kg/injection, schedule: Q01DX Z (ip), vehicle: carboxymethylcellulose (CMC) 112 % of control | dose: 90.0 mg/kg/injection, schedule: Q01DX Z (ip), vehicle: carboxymethylcellulose (CMC) 100 % of control | dose: 100.0 mg/kg/injection, schedule: Q04DX003 (ip), vehicle: saline sonified 100 % of control | dose: 200.0 mg/kg/injection, schedule: Q04DX003 (ip), vehicle: saline sonified 99 % of control | dose: 400.0 mg/kg/injection, schedule: Q04DX003 (ip), vehicle: saline sonified 100 % of control

COC(=O)C1CC(NC(C)=O)C(OC(C)=O)C1OC(C)=O (configuration not stated)
inactive: [1] 94 % of control | [2] 94 % of control | [3] 104 % of control

Cn1cnc2c(=O)[nH]nnc21
inactive: dose: 100.0 mg/kg/injection, schedule: Q01DX005 (ip), vehicle: saline 96 % of control | dose: 200.0 mg/kg/injection, schedule: Q01DX005 (ip), vehicle: saline 112 % of control

CC(C)N(CCCOC(=O)c1ccc(N)cc1)C(C)C
inactive: [4] 95 % of control | [5] 109 % of control | [6] 106 % of control | dose: 100.0 mg/kg/injection, schedule: Q04DX003 (ip), vehicle: saline 105 % of control

Cc1cc(C)c(N)c(Br)c1
inactive: dose: 25.0 mg/kg/injection, schedule: Q01DX009 (ip), vehicle: saline with Tween-80 88 % of control | dose: 25.0 mg/kg/injection, schedule: Q04DX003 (ip), vehicle: Klucel (hydroxypropylcellulose) (HPC) 95 % of control | [7] 87 % of control | dose: 50.0 mg/kg/injection, schedule: Q04DX003 (ip), vehicle: Klucel (hydroxypropylcellulose) (HPC) 97 % of control | [8] 95 % of control | [9] 93 % of control and 90 % of control | [10] 91 % of control | [11] 97 % of control

CC12CCC(C1)C(C)(C)C2N1C(c2ccccc2)C1c1ccccc1 (configuration not stated)
inactive: [12] 87 % of control | [13] 87 % of control | dose: 400.0 mg/kg/injection, schedule: Q01DX009 (ip), vehicle: Klucel (hydroxypropylcellulose) (HPC) 100 % of control

CN=C(N)N
inactive: [10] 102 % of control | [14] 101 % of control | [15] 103 % of control

C(=NC12CC3CC(CC(C3)C1)C2)c1ccccc1
inactive: [4] 106 % of control | [5] 97 % of control | [16] 100 % of control | [17] 104 % of control

COc1ccc(C(=O)c2ccc([N+](=O)[O-])cc2)c(OC)c1
inactive: [8] 101 % of control | [11] 111 % of control

CN(C)/C=C1/C=Cc2ccccc21
inactive: [6] 98 % of control | [16] 101 % of control | [17] 97 % of control

CCC1CN2N=Cc3ccccc3C2=N1 (configuration not stated)
inactive: dose: 10.0 mg/kg/injection, schedule: Q01DX001 (ip), vehicle: saline 105 % of control | dose: 20.0 mg/kg/injection, schedule: Q01DX001 (ip), vehicle: saline 103 % of control

NC(=S)N/N=C/c1ccc[nH]1
inactive: dose: 100.0 mg/kg/injection, schedule: Q01DX001 (ip), vehicle: saline with Tween-80 93 % of control | dose: 200.0 mg/kg/injection, schedule: Q01DX001 (ip), vehicle: saline with Tween-80 98 % of control

CCCCCCC1CCC(O)C1CCCCCCC(=O)O (configuration not stated)
inactive: dose: 50.0 mg/kg/injection, schedule: Q04DX002 (ip), vehicle: saline 98 % of control | dose: 100.0 mg/kg/injection, schedule: Q04DX002 (ip), vehicle: saline 91 % of control | dose: 200.0 mg/kg/injection, schedule: Q04DX002 (ip), vehicle: saline 91 % of control

NN(c1ccccc1)c1ccc2ccccc2c1
inactive: dose: 50.0 mg/kg/injection, schedule: Q01DX009 (ip), vehicle: Klucel (hydroxypropylcellulose) (HPC) 115 % of control | [12] 100 % of control | [9] 93 % of control | [13] 103 % of control | dose: 200.0 mg/kg/injection, schedule: Q04DX003 (ip), vehicle: Klucel (hydroxypropylcellulose) (HPC) 93 % of control | dose: 400.0 mg/kg/injection, schedule: Q04DX003 (ip), vehicle: Klucel (hydroxypropylcellulose) (HPC) 86 % of control

CS(=O)(=O)OCCCCO
inactive: dose: 50.0 mg/kg/injection, schedule: Q01DX001 (ip), vehicle: carboxymethylcellulose (CMC) 88 % of control | dose: 100.0 mg/kg/injection, schedule: Q01DX001 (ip), vehicle: carboxymethylcellulose (CMC) 93 % of control | dose: 200.0 mg/kg/injection, schedule: Q01DX001 (ip), vehicle: carboxymethylcellulose (CMC) 93 % of control | dose: 400.0 mg/kg/injection, schedule: Q01DX001 (ip), vehicle: carboxymethylcellulose (CMC) 90 % of control

Clc1ccc2nc3nc(-c4ccccc4)c(-c4ccccc4)nc3nc2c1
inactive: dose: 75.0 mg/kg/injection, schedule: Q01DX001 (ip), vehicle: other 98 % of control | dose: 150.0 mg/kg/injection, schedule: Q01DX001 (ip), vehicle: other 98 % of control | dose: 300.0 mg/kg/injection, schedule: Q01DX001 (ip), vehicle: other 96 % of control

CCCCOCN1C(=O)NC(c2ccccc2)(c2ccccc2)C1=O
inactive: [7] 108 % of control | dose: 100.0 mg/kg/injection, schedule: Q01DX009 (ip), vehicle: saline with Tween-80 94 % of control

C(C=C(c1ccccc1)c1ccccc1)=C(c1ccccc1)c1ccccc1
inactive: [10] 97 % of control | [14] 90 % of control | [15] 92 % of control
